In patent US4959363A, “Quinolonecarboxamide compounds, their preparation and use as antivirals” (Sterling Drug Inc., priority 1989, dated 1990):

Experiments:
[1] = set-up: species or system albino mice; details: mouse
[2] = tested on: Vero (African Green Monkey Kidney) cells; test: In vitro maximum tolerated dose (MTL), Vero cells; type: cell-based
herpes simplex virus = test: In Vivo - Intravaginal Herpes Virus Infection in Mice; set-up: species or system albino mice; details: Mus musculus, 336 h, oral or intraperitoneal, b.i.d. 5 days, NA = Not active at dose levels tested, read-out: In Vivo MED (Minimum effective dose)
Method: In Vivo - Intravaginal Herpes Virus Infection in Mice
Approximately 1 hr. prior to infection, the vaginas of 15 gm albino mice were swabbed with cotton saturated with 0.1 N NaOH to remove vaginal secretions and to irritate the vaginal mucosa slightly. At the proper time, 0.05 ml of an appropriate dose of herpes simplex virus was placed deep in the vagina. Starting 2.5 hrs. prior to infection, the mice were medicated either orally or intraperitoneally. Medication was continued daily for a total of 5 days on a b.i.d. regimen. The test was terminated after 14 days. A comparison of the number of surviving mice and/or extension of survival was made at the end of the test. The criterion for activity was a statistically significant extension of the average survival time of the test group over that of the control mice in two experiments.

[3] = In vitro maximum tolerated dose (MTL), Vero cells; type: cell-based, African Green Monkey; details: monkey, vero cells, In Vitro

For “1,4-Dihydro-1-(4-fluorophenyl)-7-(3-methyl-5-thiazolyl)-4-oxo-3-quinolinecarboxamide [Example 37d]”, the “In Vivo MTL (Maximum tolerated dose)” value [1] was > 100 and the “In Vitro MTL (Maximum tolerated dose)” value ([2]; monkey, vero cells, 72 h) was > 100.
With NC(=O)c1cn(-c2ccncc2)c2cc(-c3ccncc3)ccc2c1=O [Example 10, 1,4-Dihydro-4-oxo-1,7-di(4-pyridinyl)-3-quinolinecarboxamide] the “In Vivo MTL (Maximum tolerated dose)” value [1] was 75, the minimal effective dose (herpes simplex virus) was 50 to 75 mg/kg/day and the MNTC at 72 h [3] was > 200 µg/mL.
With NC(=O)c1cn(-c2ccc(Cl)c(Cl)c2)c2cc(-c3ccncc3)ccc2c1=O [Example 14, 1-(3,4-Dichlorophenyl)-1,4-dihydro-4-oxo-7-(4-pyridinyl)-3-quinolinecarboxamide] the “In Vivo MTL (Maximum tolerated dose)” value [1] was 100, the minimal effective dose (herpes simplex virus) was 50 mg/kg/day and the MNTC at 72 h [3] was > 12.5 µg/mL.
For CCn1cc(C(=O)NC)c(=O)c2ccc(-c3ccncc3)cc21 [Example 28, 1-Ethyl-1,4-dihydro-N-methyl-4-oxo-7-(4-pyridinyl)-3quinolinecarboxamide], the “In Vivo MTL (Maximum tolerated dose)” value [1] was 50, the minimal effective dose (herpes simplex virus) was 50 mg/kg/day and the MNTC at 72 h [3] was > 25 µg/mL.
With NC(=O)c1cn(-c2ccc(Br)cc2)c2cc(-c3ccncc3)ccc2c1=O [Example 31, 1-(4-Bromophenyl)-1,4-dihydro-7-(4-pyridinyl)-4-oxo-3quinolinecarboxamide] the “In Vivo MTL (Maximum tolerated dose)” value [1] was 50, the minimal effective dose (herpes simplex virus) was 50 mg/kg/day and the MNTC at 72 h [3] was > 12.5 µg/mL.
For CCn1c(=O)c(C(N)=O)c(O)c2ccc(-c3ccncc3)cc21 [Example 38c, 1-Ethyl-1,2-dihydro-4-hydroxy-2-oxo-7-(4-pyridinyl)-3quinolinecarboxamide], the “In Vivo MTL (Maximum tolerated dose)” value [1] was 100, the minimal effective dose (herpes simplex virus) was 100 to 200 mg/kg/day and the MNTC at 72 h [3] was > 12.5 µg/mL.
For Cn1c(O)c(C(N)=O)c(=O)c2ccc(-c3ccncc3)cc21 [Example 39b, 1,4-Dihydro-2-hydroxy-1-methyl-4-oxo-7-(4-pyridinyl)3-quinolinecarboxamide], the “In Vivo MTL (Maximum tolerated dose)” value [1] was 150, the minimal effective dose (herpes simplex virus) was 150 to 200 mg/kg/day and the MNTC at 72 h [3] was 3.1 µg/mL.
With NC(=O)c1c(N)n(-c2ccc(F)cc2)c2cc(-c3ccncc3)ccc2c1=O [Example 41c, 2-Amino-1,4-dihydro-1-(4-fluorophenyl)-4-oxo-7-(4-pyriridinyl)-3-quinolinecarboxamide] the “In Vivo MTL (Maximum tolerated dose)” value [1] was 100, the minimal effective dose (herpes simplex virus) was 50 mg/kg/day and the MNTC at 72 h [3] was > 100 µg/mL.
With NC(=O)c1cn(-c2ccccc2)c2cc(-c3ccncc3)ccc2c1=O [Example 45e, 1,4-Dihydro-4-oxo-1-phenyl-7-(4-pyridinyl)-3-quinolinecarboxamide] the “In Vivo MTL (Maximum tolerated dose)” value [1] was 50, the minimal effective dose (herpes simplex virus) was 25 mg/kg/day and the “In Vitro MTL (Maximum tolerated dose)” value ([2]; In Vitro, Vero cells, 4320 min) was > 6.25.
For NC(=O)c1cn(-c2cccc(F)c2)c2cc(-c3ccncc3)ccc2c1=O [Example 46e, 1,4-Dihydro-1-(3-fluorophenyl)-4-oxo-7-(4-pyridinyl)3-quinolinecarboxamide], the “In Vivo MTL (Maximum tolerated dose)” value [1] was 50, the minimal effective dose (herpes simplex virus) was 25 to 50 mg/kg/day and the MNTC at 72 h [3] was > 6.25 µg/mL.
